Where “and” joins values, the source holds several entries; their conditions need not be identical. Equal values may be shown once. Inconclusive results and toxic doses are left out. The calls were made as follows: active = survival T/C of 150% or more; inactive = T/C below 125% in these data.
Tested on: P388 leukemia ip, CD2F1 mice, survival T/C
Assay: NCI In Vivo Anticancer Drug Screen. Data for tumor model P388 Leukemia (intraperitoneal) in CD2F1 (CDF1) mice
Details: endpoint: median survival time, higher = longer survival
Summary of the method: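 Mice carrying the transplanted tumor received test compound or vehicle. Survival was recorded in each group, and the value is the treated-group measurement divided by that of the vehicle-treated control group.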

[1] = dose: 100.0 mg/kg/injection, schedule: Q04DX002 (ip), vehicle: saline with Tween-80
[2] = dose: 200.0 mg/kg/injection, schedule: Q04DX002 (ip), vehicle: saline with Tween-80
[3] = dose: 400.0 mg/kg/injection, schedule: Q04DX002 (ip), vehicle: saline with Tween-80
[4] = dose: 50.0 mg/kg/injection, schedule: Q01DX009 (ip), vehicle: Klucel (hydroxypropylcellulose) (HPC)
[5] = dose: 100.0 mg/kg/injection, schedule: Q01DX009 (ip), vehicle: Klucel (hydroxypropylcellulose) (HPC)
[6] = dose: 200.0 mg/kg/injection, schedule: Q01DX009 (ip), vehicle: Klucel (hydroxypropylcellulose) (HPC)
[7] = dose: 100.0 mg/kg/injection, schedule: Q04DX003 (ip), vehicle: saline with Tween-80
[8] = dose: 200.0 mg/kg/injection, schedule: Q04DX003 (ip), vehicle: saline with Tween-80
[9] = dose: 400.0 mg/kg/injection, schedule: Q04DX003 (ip), vehicle: saline with Tween-80
[10] = dose: 50.0 mg/kg/injection, schedule: Q01DX009 (ip), vehicle: saline
[11] = dose: 100.0 mg/kg/injection, schedule: Q01DX009 (ip), vehicle: saline
[12] = dose: 200.0 mg/kg/injection, schedule: Q01DX009 (ip), vehicle: saline
[13] = dose: 100.0 mg/kg/injection, schedule: Q01DX001 (ip), vehicle: saline with Tween-80
[14] = dose: 200.0 mg/kg/injection, schedule: Q01DX001 (ip), vehicle: saline with Tween-80
[15] = dose: 50.0 mg/kg/injection, schedule: Q01DX009 (ip), vehicle: other
[16] = dose: 100.0 mg/kg/injection, schedule: Q01DX009 (ip), vehicle: other
[17] = dose: 400.0 mg/kg/injection, schedule: Q01DX009 (ip), vehicle: other
[18] = dose: 50.0 mg/kg/injection, schedule: Q01DX005 (ip), vehicle: saline with Tween-80
[19] = dose: 100.0 mg/kg/injection, schedule: Q01DX005 (ip), vehicle: saline with Tween-80
[20] = dose: 200.0 mg/kg/injection, schedule: Q01DX005 (ip), vehicle: saline with Tween-80
[21] = dose: 50.0 mg/kg/injection, schedule: Q01DX009 (ip), vehicle: saline with Tween-80
[22] = dose: 100.0 mg/kg/injection, schedule: Q01DX009 (ip), vehicle: saline with Tween-80
[23] = dose: 200.0 mg/kg/injection, schedule: Q01DX009 (ip), vehicle: saline with Tween-80

Measured: T/C

C[As+](C)(C)SCCO
inactive: dose: 100.0 mg/kg/injection, schedule: Q04DX002 (ip), vehicle: saline 98 % of control | dose: 200.0 mg/kg/injection, schedule: Q04DX002 (ip), vehicle: saline 95 % of control | dose: 400.0 mg/kg/injection, schedule: Q04DX002 (ip), vehicle: saline 95 % of control

CC(C)(C)OOC(=O)c1ccc(Cl)cc1
inactive: [1] 96 % of control | [2] 95 % of control | [3] 101 % of control

CN=C(NC)Nc1nc(-c2ccccc2)c(-c2ccccc2)[nH]1
inactive: dose: 12.5 mg/kg/injection, schedule: Q04DX002 (ip), vehicle: saline with Tween-80 105 % of control | dose: 25.0 mg/kg/injection, schedule: Q04DX002 (ip), vehicle: saline with Tween-80 100 % of control | dose: 50.0 mg/kg/injection, schedule: Q04DX002 (ip), vehicle: saline with Tween-80 107 % of control

C=CCSc1nc2ccc(N3C(=O)CCC3=O)cc2s1
inactive: dose: 12.5 mg/kg/injection, schedule: Q01DX009 (ip), vehicle: Klucel (hydroxypropylcellulose) (HPC) 105 % of control | dose: 25.0 mg/kg/injection, schedule: Q01DX009 (ip), vehicle: Klucel (hydroxypropylcellulose) (HPC) 103 % of control | [4] 101 % of control and 102 % of control | [5] 92 % of control | [6] 89 % of control

N#C/C(=C\c1c[nH]c2ccccc12)C(N)=O
inactive: [7] 100 % of control | [8] 100 % of control | [9] 100 % of control

NNc1ccc(N(CCO)CCO)nn1
inactive: [10] 93 % of control | [11] 100 % of control | [12] 105 % of control

O=C1CS(=O)(=O)C(c2ccccn2)N1CCN1C(=O)CS(=O)(=O)C1c1ccccn1 (centres undefined)
inactive: [13] 100 % of control and 101 % of control | [1] 90 % of control | [14] 92 % of control and 97 % of control | [2] 98 % of control | dose: 400.0 mg/kg/injection, schedule: Q01DX001 (ip), vehicle: saline with Tween-80 89 % of control and 101 % of control | [3] 91 % of control

CCN(CC)c1ccc(N=Nc2ccc(Br)cn2)c(O)c1
inactive: dose: 60.0 mg/kg/injection, schedule: Q01DX005 (ip), vehicle: Klucel + Tween-80 104 % of control | dose: 120.0 mg/kg/injection, schedule: Q01DX005 (ip), vehicle: Klucel + Tween-80 95 % of control | dose: 240.0 mg/kg/injection, schedule: Q01DX005 (ip), vehicle: Klucel + Tween-80 92 % of control

NS(=O)(=O)c1cc2c(cc1Cl)NC(CCC(=O)O)=NS2(=O)=O
inactive: dose: 12.5 mg/kg/injection, schedule: Q01DX009 (ip), vehicle: distilled water + Tween-80 93 % of control | dose: 25.0 mg/kg/injection, schedule: Q01DX009 (ip), vehicle: distilled water + Tween-80 102 % of control | dose: 25.0 mg/kg/injection, schedule: Q01DX009 (ip), vehicle: other 92 % of control | dose: 50.0 mg/kg/injection, schedule: Q01DX009 (ip), vehicle: distilled water + Tween-80 98 % of control | [15] 90 % of control | dose: 100.0 mg/kg/injection, schedule: Q01DX009 (ip), vehicle: distilled water + Tween-80 102 % of control | [16] 90 % of control | dose: 200.0 mg/kg/injection, schedule: Q01DX009 (ip), vehicle: distilled water + Tween-80 102 % of control | dose: 400.0 mg/kg/injection, schedule: Q01DX009 (ip), vehicle: distilled water + Tween-80 98 % of control | [17] 97 % of control

CC1C(c2ccccc2)OCCN1C(=S)Nc1ccc(S(=O)(=O)N2CCCCC2)cc1 (centres undefined)
inactive: [4] 86 % of control and 95 % of control | [5] 105 % of control | [6] 91 % of control and 95 % of control

CCCCCCCCCCCC(CCCCCCCCCC)CCCCCCCCCC
inactive: dose: 50.0 mg/kg/injection, schedule: Q01DX001 (ip), vehicle: saline with Tween-80 109 % of control | [13] 104 % of control | [14] 100 % of control

C/C(=N\NC(=S)Nc1nccs1)c1nccc2ccccc12
inactive: [18] 100 % of control | [19] 114 % of control | [20] 122 % of control

O=CNc1ccc2c(c1)Cc1cc(Br)ccc1-2
inactive: dose: 25.0 mg/kg/injection, schedule: Q01DX009 (ip), vehicle: saline with Tween-80 93 % of control | [21] 98 % of control | [22] 93 % of control | [23] 88 % of control

CC(C)OC(=O)C1(N)CCCC1
inactive: [10] 97 % of control | [11] 87 % of control | dose: 100.0 mg/kg/injection, schedule: Q04DX003 (ip), vehicle: saline 95 % of control | dose: 200.0 mg/kg/injection, schedule: Q04DX003 (ip), vehicle: saline 104 % of control

CCOC(=O)/N=[N+](\[O-])c1ccc(Br)cc1
inactive: dose: 12.5 mg/kg/injection, schedule: Q01DX001 (ip), vehicle: Klucel (hydroxypropylcellulose) (HPC) 109 % of control | dose: 25.0 mg/kg/injection, schedule: Q01DX001 (ip), vehicle: Klucel (hydroxypropylcellulose) (HPC) 115 % of control | dose: 50.0 mg/kg/injection, schedule: Q01DX001 (ip), vehicle: Klucel (hydroxypropylcellulose) (HPC) 103 % of control

O=C1C2C3C=CC(O3)C2C(=O)N1/N=C/c1ccc2c(c1)OCO2 (centres undefined)
inactive: [18] 97 % of control | [19] 102 % of control | [20] 93 % of control

O=S(=O)(O)Sc1ncnc2nc[nH]c12
inactive: [10] 108 % of control | dose: 75.0 mg/kg/injection, schedule: Q04DX003 (ip), vehicle: saline 100 % of control | [11] 122 % of control | dose: 150.0 mg/kg/injection, schedule: Q04DX003 (ip), vehicle: saline 98 % of control | [12] 108 % of control | dose: 300.0 mg/kg/injection, schedule: Q04DX003 (ip), vehicle: saline 108 % of control

CC1CCCC(OC(=O)Nc2ccccc2)C1 (centres undefined)
inactive: [7] 105 % of control | [8] 103 % of control | [9] 96 % of control

COc1cc([N+](=O)[O-])cc2cc(C)c(=O)oc12
inactive: [21] 99 % of control | [22] 91 % of control | [23] 91 % of control

O=C(O)C[n+]1ccccc1
inactive: dose: 6.25 mg/kg/injection, schedule: Q01DX009 (ip), vehicle: saline 103 % of control | dose: 12.5 mg/kg/injection, schedule: Q01DX009 (ip), vehicle: saline 101 % of control and 94 % of control | dose: 25.0 mg/kg/injection, schedule: Q01DX009 (ip), vehicle: saline 105 % of control | [10] 101 % of control | [11] 97 % of control

O=S(=O)(SC(Cl)(Cl)Cl)c1ccc(Cl)cc1
inactive: dose: 12.5 mg/kg/injection, schedule: Q01DX009 (ip), vehicle: saline sonified 100 % of control | dose: 25.0 mg/kg/injection, schedule: Q01DX009 (ip), vehicle: saline sonified 100 % of control | dose: 50.0 mg/kg/injection, schedule: Q01DX009 (ip), vehicle: saline sonified 100 % of control

Cc1cc(NCCCCCCNc2cc(C)nc3cc([N+](=O)[O-])ccc23)c2ccc([N+](=O)[O-])cc2n1
inactive: [15] 98 % of control | [16] 99 % of control | dose: 200.0 mg/kg/injection, schedule: Q01DX009 (ip), vehicle: other 96 % of control | [17] 103 % of control

Nc1nc(CC(N)C(=O)O)c[se]1 (centres undefined)
inactive: dose: 60.0 mg/kg/injection, schedule: Q01DX005 (ip), vehicle: saline 97 % of control | dose: 120.0 mg/kg/injection, schedule: Q01DX005 (ip), vehicle: saline 100 % of control | dose: 240.0 mg/kg/injection, schedule: Q01DX005 (ip), vehicle: saline 100 % of control

CCCCCN1C(=O)C2C3CCC(O3)C2C1=O (centres undefined)
inactive: dose: 50.0 mg/kg/injection, schedule: Q01DX005 (ip), vehicle: Klucel (hydroxypropylcellulose) (HPC) 109 % of control | dose: 100.0 mg/kg/injection, schedule: Q01DX005 (ip), vehicle: Klucel (hydroxypropylcellulose) (HPC) 109 % of control

CCOC(=O)N1CCC23C=C(OC)C(=O)C=C2C1Cc1ccc(OC)c(O)c13 (centres undefined)
inactive: [1] 100 % of control | [2] 105 % of control | [3] 93 % of control
